Patent publication EP0973746B1, “SUBSTITUTED 3-CYANO QUINOLINES” (Wyeth Holdings Corporation, priority 1997, dated 1998)
pIC50: −log10 of the molar value. In brackets after ≈: the same amount, converted by molar mass. Read-outs that look alike come from different tables or passages of the source. Blank lines part the entries; values can stand above or below the compound they belong to.

How the values were obtained:
HTB161 = assay: Inhibition of cancer cell growth as measured by cell number, HTB161; assay type: cell-based; conditions: Homo sapiens, 48 h, read-out: IC50 HTB161
CCRF-CFM = assay: Inhibition of cancer cell growth as measured by cell number, CCRF-CFM; assay type: cell-based; conditions: Homo sapiens, 48 h, read-out: IC50 CCRF-CFM
PC3 = assay: Inhibition of cancer cell growth as measured by cell number, PC3; assay type: cell-based; conditions: Homo sapiens, PC-3, 48 h, read-out: IC50 PC3
NHEK = assay: Inhibition of cell growth by incorporation of [3H]-thymidine, NHEK; assay type: cell-based, human; conditions: Homo sapiens, read-out: IC50 NHEK
Protocol: Representative compounds of this invention were evaluated for their ability to inhibit the growth of the cell lines described below in vitro. The inhibition is quantitated by measuring the decrease in the incorporation of radio-labeled thymidine when the cells are grown in the presence of the inhibitor. […] Cells were routinely grown in a humidified incubator in 5% CO2 in air.
Cells were seeded at 10,000 cells/well in 96 well plates in complete media and allowed to grow to log phase. At this stage the complete media was replaced with media containing 0.5% FBS (for cells growing in 10% FBS) or media lacking epidermal growth factor (EGF) (for cells growing in serum free media). […] Media with test compound was then removed and complete media was added back. The cells were allowed to grow for 18 hours. This is followed by incubation in [^3H]thymidine (1mCi/ml in serum/EGF media) for 4 hours. Cells were lysed in 0.5 M NaOH for at least 30 min at 37°C and radioactivity analyzed.
The % inhibition of the compound evaluated was determined for at least three different concentrations and the IC50 value evaluated from the dose response curve. […] CPM(control) is in units of counts per minute and is a number expressing the amount of [^3H]thymidine incorporated onto the DNA when cells are grown in the absence of test compound as measured by liquid scintillation counting.

A549 = assay: Inhibition of cancer cell growth as measured by cell number, A549; assay type: cell-based; conditions: Homo sapiens, A549, 48 h, read-out: IC50 A549
SKBR3 = assay: Inhibition of cancer cell growth as measured by cell number, SKBR3; assay type: cell-based, human; conditions: Homo sapiens, SK-BR-3, 48 h, read-out: IC50 SKBR3, cell number, Sulforhodamine B, 48 hours exposure; Table 7;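 further: SK-BR-3 cells were selected as a line overexpressing HER2/neu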
Description: (§1) The cell lines were chosen since they overexpressed epidermal growth factor receptor (EGFR) (i.e. A431) or HER2/neu (SKBR3), or had little to no expression of the these receptors (SW620, LOX, MCF7).

MCF7 = assay: Inhibition of cancer cell growth as measured by cell number, MCF7; assay type: cell-based, human; conditions: Homo sapiens, MCF7, 48 h, read-out: IC50 MCF7, cell number, Sulforhodamine B, 48 hours exposure; Table 5;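 further: MCF7 was included as a line with little or no EGFR or HER2/neu expression, in contrast to the receptor-overexpressing lines of the panel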
Description: as §1

A2780DDP = assay: Inhibition of cancer cell growth as measured by cell number, A2780DDP; assay type: cell-based; conditions: Homo sapiens, 48 h, read-out: IC50 A2780DDP
A27805 = assay: Inhibition of cancer cell growth as measured by cell number, A27805; assay type: cell-based; conditions: Homo sapiens, 48 h, read-out: IC50 A27805
[1] = molecular target: recombinant human MEK 1 (MAPKK) and recombinant human ERK2 (MAPK); assay: Mitogen Activated Protein Kinase (MAPK) assay, two component coupled MEK 1 / ERK2; assay type: biochemical; conditions: separate entries for the same compound = evaluated more than one time;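 further: MEK 1-activated ERK2 phosphorylates MBP or Myc peptide with 33P-ATP, filter capture and scintillation counting, inhibitor preincubated with ERK2 30 min at 0 °C, inhibition relative to uninhibited control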
NEC = assay: Inhibition of cancer cell growth as measured by cell number, NEC; assay type: cell-based; conditions: Homo sapiens, 48 h, read-out: IC50 NEC
CACO2 = assay: Inhibition of cancer cell growth as measured by cell number, CACO2; assay type: cell-based; conditions: Homo sapiens, Caco-2, 48 h, read-out: IC50 CACO2
HL60 = assay: Inhibition of cancer cell growth as measured by cell number, HL60; assay type: cell-based; conditions: Homo sapiens, HL-60, 48 h, read-out: IC50 HL60
CCL228 = assay: Inhibition of cancer cell growth as measured by cell number, CCL228; assay type: cell-based; conditions: Homo sapiens, 48 h, read-out: IC50 CCL228
T47D = assay: Inhibition of cancer cell growth as measured by cell number, T47D; assay type: cell-based; conditions: Homo sapiens, 48 h, read-out: IC50 T47D
LX1 = assay: Inhibition of cancer cell growth as measured by cell number, LX1; assay type: cell-based; conditions: Homo sapiens, LX-1, 48 h, read-out: IC50 LX1
SW620 = assay: Inhibition of cancer cell growth as measured by cell number, SW620; assay type: cell-based, human; conditions: Homo sapiens, SW-620, 48 h, read-out: IC50 SW620, cell number, Sulforhodamine B, 48 hours exposure; Table 4;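 further: SW620 was included as a cell line with little or no EGFR or HER2/neu expression, in contrast to receptor-overexpressing lines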
Description: as §1

DU145 = assay: Inhibition of cancer cell growth as measured by cell number, DU145; assay type: cell-based; conditions: Homo sapiens, DU-145, 48 h, read-out: IC50 DU145
LNCAP = assay: Inhibition of cancer cell growth as measured by cell number, LNCAP; assay type: cell-based; conditions: Homo sapiens, 48 h, read-out: IC50 LNCAP
LOX = assay: Inhibition of cancer cell growth as measured by cell number, LOX; assay type: cell-based, human; conditions: Homo sapiens, LOX, 48 h, read-out: IC50 LOX, cell number, Sulforhodamine B, 48 hours exposure; Table 6;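 further: LOX cells served as a line with low or absent EGFR and HER2/neu expression, in contrast to receptor-overexpressing lines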
Description: as §1

COLO205 = assay: Inhibition of cancer cell growth as measured by cell number, COLO205; assay type: cell-based; conditions: Homo sapiens, COLO 205, 48 h, read-out: IC50 COLO205
A431 [2] = assay: Inhibition of cancer cell growth as measured by cell number, A431; assay type: cell-based, human; conditions: Homo sapiens, A-431, 48 h, read-out: IC50 A431, cell number, Sulforhodamine B, 48 hours exposure; Table 6;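 further: human A431 line, picked because it overexpresses epidermal growth factor receptor (EGFR)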
Description: as §1

LS174T = assay: Inhibition of cancer cell growth as measured by cell number, LS174T; assay type: cell-based; conditions: Homo sapiens, 48 h, read-out: IC50 LS174T
MIP = assay: Inhibition of cancer cell growth as measured by cell number, MIP; assay type: cell-based; conditions: Homo sapiens, 48 h, read-out: IC50 MIP
B7474 = assay: Inhibition of cancer cell growth as measured by cell number, B7474; assay type: cell-based; conditions: Homo sapiens, 48 h, read-out: IC50 B7474
SW948 = assay: Inhibition of cancer cell growth as measured by cell number, SW948; assay type: cell-based; conditions: Homo sapiens, SW948, 48 h, read-out: IC50 SW948
[3] = molecular target: epidermal growth factor receptor kinase (Homo sapiens, UniProt P00533); assay: biochemical
Chain of epidermal growth factor receptor kinase (P00533 25-1210): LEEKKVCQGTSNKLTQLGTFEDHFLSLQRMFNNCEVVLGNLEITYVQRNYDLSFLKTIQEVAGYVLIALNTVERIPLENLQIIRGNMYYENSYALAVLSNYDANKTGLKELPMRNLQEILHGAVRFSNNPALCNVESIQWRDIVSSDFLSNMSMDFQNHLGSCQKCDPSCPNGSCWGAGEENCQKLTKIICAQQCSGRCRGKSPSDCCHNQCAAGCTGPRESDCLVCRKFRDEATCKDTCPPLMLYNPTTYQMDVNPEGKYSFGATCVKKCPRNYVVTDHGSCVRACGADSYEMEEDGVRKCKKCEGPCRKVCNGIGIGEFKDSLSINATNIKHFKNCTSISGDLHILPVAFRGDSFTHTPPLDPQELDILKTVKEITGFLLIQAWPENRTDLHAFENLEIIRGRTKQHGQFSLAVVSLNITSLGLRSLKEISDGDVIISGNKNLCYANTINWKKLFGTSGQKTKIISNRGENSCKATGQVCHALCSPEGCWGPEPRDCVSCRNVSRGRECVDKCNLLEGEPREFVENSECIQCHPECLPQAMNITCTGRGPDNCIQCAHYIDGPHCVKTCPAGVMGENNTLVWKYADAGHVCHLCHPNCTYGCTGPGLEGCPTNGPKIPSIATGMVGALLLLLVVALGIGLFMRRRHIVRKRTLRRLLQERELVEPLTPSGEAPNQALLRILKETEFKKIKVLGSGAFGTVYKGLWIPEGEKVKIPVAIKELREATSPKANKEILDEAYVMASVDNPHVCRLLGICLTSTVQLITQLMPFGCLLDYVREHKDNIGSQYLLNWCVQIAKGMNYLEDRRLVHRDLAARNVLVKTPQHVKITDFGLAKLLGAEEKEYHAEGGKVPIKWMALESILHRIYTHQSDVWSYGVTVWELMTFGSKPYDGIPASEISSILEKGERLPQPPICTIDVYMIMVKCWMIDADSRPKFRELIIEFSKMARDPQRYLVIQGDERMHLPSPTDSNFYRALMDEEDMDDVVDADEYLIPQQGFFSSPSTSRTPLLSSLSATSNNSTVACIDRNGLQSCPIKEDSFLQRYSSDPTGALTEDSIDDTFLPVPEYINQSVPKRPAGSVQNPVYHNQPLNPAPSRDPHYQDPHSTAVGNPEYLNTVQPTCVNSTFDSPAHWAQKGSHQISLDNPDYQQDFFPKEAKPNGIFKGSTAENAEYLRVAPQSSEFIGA
Protocol: The enzyme was obtained as a membrane extract of A431 cells (American Type Culture Collection, Rockville, MD). A431 cells were grown in T175 flasks to 80% confluency. The cells were washed twice with phosphate buffered saline (PBS) without Ca^2+. Flasks were rotated for 1.5 hours in 20 ml PBS with 1.0 mM ethylenediaminetetraacetic acid (EDTA) at room temperature and centrifuged at 600g for 10 minutes. The cells were solubilized in 1 ml per 5 x 10^6 cells of cold lysis buffer {10mM 4-(2-hydroxyethyl)-1-piperazineethane-sulfonic acid (HEPES), pH 7.6, 10 mM NaCl, 2mM EDTA, 1mM phenylmethyl-sulfonyl-fluoride (PMSF), 10 mg/ml aprotinin, 10 mg/ml leupeptin, 0.1 mM sodium orthovanadate} in a Dounce homogenizer with 10 strokes on ice. The lysate was centrifuged at 600g for 10 minutes first to clear cell debris and the supernatant further centrifuged at 100,000 g for 30 min at 4°C. The membrane pellet was suspended in 1.5 ml HNG buffer (50 mM HEPES, pH 7.6, 125 mM NaCl, 10% glycerol). The membrane extract was divided into aliquots, immediately frozen in liquid nitrogen and stored at -70°C.
Compounds to be evaluated were made into 10 mg/ml stock solutions in 100% dimethylsulfoxide (DMSO). Prior to experiment, stock solutions were diluted to 500 mM with buffer (30 mM Hepes pH 7.4) and then serially diluted to the desired concentration.
An aliquot of the A431 membrane extract (10 mg/ml) was diluted in 30 mM HEPES (pH 7.4) to give a protein concentration of 50 ug/ml. […] To this was added the ^33p-ATP (10 mCi/ml) diluted 1:10 in assay buffer along with the substrate peptide at a concentration of 0.5 mM (control reactions get no test compound) and the reaction was allowed to proceed for 30 min at 30°C. The reaction was stopped with 10% TCA and left on ice for at least 10 min after which tubes were microcentrifuged at full speed for 15 min. The a portion of the supernatants were spotted on P81 phosphocellulose discs and washed twice in 1% acetic acid then water for 5 min each followed by scintillation counting. […] The % inhibition of the test compound was determined for at least three different concentrations and the IC50 value was evaluated from the dose response curve. […] CPM(control) is in units of counts per minute and was a number expressing the amount of radiolabeled ATP (g-^33P) incorporated into the RR-SRC peptide substrate by the enzyme after 30 minutes at 30°C in the absence of test compound as measured by liquid scintillation counting. The CPM values were corrected for the background counts produced by ATP in the absence of the enzymatic reaction. The IC50 values reported in TABLE 1 are averages of the number of tests conducted.

HCT15 = assay: Inhibition of cancer cell growth as measured by cell number, HCT15; assay type: cell-based; conditions: Homo sapiens, HCT-15, 48 h, read-out: IC50 HCT15
CX1 = assay: Inhibition of cancer cell growth as measured by cell number, CX1; assay type: cell-based; conditions: Homo sapiens, CX-1, 48 h, read-out: IC50 CX1
A431 [4] = assay: Inhibition of cell growth by incorporation of [3H]-thymidine, A431; assay type: cell-based, human; conditions: Homo sapiens, A-431; [3H]-thymidine incorporation; A431; read-out: IC50 A431

Compound: CC#CC(=O)Nc1ccc2ncc(C#N)c(Nc3cccc(Br)c3)c2c1 [Example 15, N-[4-[(3-Bromophenyl)amino]-3-cyano-6-quinolinyl]-2-butynamide]
IC50 (HTB161): 33 µg/mL (≈ 81.4 µM)
IC50 (CCRF-CFM): > 33 µg/mL
IC50 (PC3): > 33 µg/mL
pIC50 (NHEK): 5.40
IC50 (A549): > 33 µg/mL
IC50 (SKBR3): > 33 µg/mL
IC50 (MCF7): > 33 µg/mL
IC50 (A2780DDP): 33 µg/mL (≈ 81.4 µM)
IC50 (A27805): 33 µg/mL (≈ 81.4 µM)
pIC50 [1]: < 4.00
IC50 (NEC): > 33 µg/mL
IC50 (CACO2): 2.41 µg/mL (≈ 5.94 µM)
IC50 (HL60): > 33 µg/mL
IC50 (CCL228): > 33 µg/mL
IC50 (T47D): > 33 µg/mL
IC50 (LX1): > 33 µg/mL
IC50 (SW620): 33 µg/mL (≈ 81.4 µM)
IC50 (DU145): 18 µg/mL (≈ 44.4 µM)
IC50 (LNCAP): > 33 µg/mL
IC50 (LOX): > 33 µg/mL
IC50 (COLO205): 33 µg/mL (≈ 81.4 µM)
IC50 (A431 [2]): 22 µg/mL (≈ 54.3 µM)
IC50 (LS174T): > 33 µg/mL
IC50 (MIP): 33 µg/mL (≈ 81.4 µM)
IC50 (B7474): > 33 µg/mL
IC50 (SW948): > 33 µg/mL
pIC50 [3]: 9.22
IC50 (HCT15): > 33 µg/mL
IC50 (CX1): 33 µg/mL (≈ 81.4 µM)

pIC50 (A431 [4]): 4.46
Compound: N#Cc1cnc2ccc([N+](=O)[O-])cc2c1Nc1ccc(Br)c(Br)c1 [Example 20, 4-[(3,4-Dibromophenyl)amino]-6-nitro-3-quinolinecarbonitrile]
pIC50 (NHEK; [3H]-thymidine incorporation): 6.19
